According to patent US20240065988A1, “COMBINED USE OF KETAMINE AND RETIGABINE (EZOGABINE) FOR THE TREATMENT OF PSYCHIATRIC DISORDERS” (Yeda Research and Development Co. Ltd., priority 2021, published 2024):

Test system: single cells from the ventral hippocampus (vHipp)
Assay: Single-cell RNA sequencing (scRNA-seq) of the ventral hippocampus after ketamine treatment; differential expression per cell type; on Mean-Ket: unit not given here
[1] = Astrocytes, ketamine 10 mg/kg i.p.
[2] = Astrocytes, ketamine 10 mg/kg i.p. vs saline
[3] = Endothelial, ketamine 10 mg/kg i.p.
[4] = Endothelial, ketamine 10 mg/kg i.p. vs saline

Structure (SMILES): CNC1(c2ccccc2Cl)CCCCC1=O (racemic) [ketamine, (R,S)-ketamine]
- Change (Aarsd1, Glut Neurons): Down
- Mean-Ket (Aarsd1, Glut Neurons): 1.682
- logFC (Aarsd1, Glut Neurons): −0.119
- Change (Acad9, Glut Neurons): Up
- Mean-Ket (Acad9, Glut Neurons): 1.372
- logFC (Acad9, Glut Neurons): 0.210
- Change (Aire, Glut Neurons): Down
- Mean-Ket (Aire, Glut Neurons): 2.157
- logFC (Aire, Glut Neurons): −0.116
- Change (Akap5, Astrocytes): Down
- Mean-Ket (Akap5, Astrocytes): 4.005
- logFC (Akap5, Astrocytes): −0.219
- Aire Mean-Ket [1]: 2.361
- Aktip Mean-Ket [1]: 1.656
- Atg2a Mean-Ket [1]: 1.418
- Calm1 Mean-Ket [1]: 2.021
- Calm2 Mean-Ket [1]: 1.730
- Capza2 Mean-Ket [1]: 3.001
- Cars2 Mean-Ket [1]: 2.703
- Cep89 Mean-Ket [1]: 2.822
- Cox7a2 Mean-Ket [1]: 1.052
- Elp6 Mean-Ket [1]: 1.701
- Fam193a Mean-Ket [1]: 2.684
- Gje1 Mean-Ket [1]: 0.961
- Gmeb1 Mean-Ket [1]: 2.962
- Hadhb Mean-Ket [1]: 1.956
- Haus8 Mean-Ket [1]: 1.269
- Lztr1 Mean-Ket [1]: 1.556
- Mettl3 Mean-Ket [1]: 2.842
- Mrp19 Mean-Ket [1]: 2.904
- Mterf3 Mean-Ket [1]: 1.289
- Nop58 Mean-Ket [1]: 2.828
- P3h3 Mean-Ket [1]: 2.495
- Parp1 Mean-Ket [1]: 2.675
- Polr2c Mean-Ket [1]: 2.613
- Ppan Mean-Ket [1]: 2.916
- Rfc2 Mean-Ket [1]: 0.929
- Rpap1 Mean-Ket [1]: 1.265
- Sec23ip Mean-Ket [1]: 2.886
- Slc23a1 Mean-Ket [1]: 2.421
- Snf8 Mean-Ket [1]: 2.945
- Sumf2 Mean-Ket [1]: 1.532
- Tecr Mean-Ket [1]: 1.562
- Tuba1b Mean-Ket [1]: 1.065
- Tubb2a Mean-Ket [1]: 0.960
- Uba2 Mean-Ket [1]: 1.413
- Vps8 Mean-Ket [1]: 2.087
- Zcchc4 Mean-Ket [1]: 0.999
- Aire Change [2]: Down
- Aire logFC [2]: −0.106
- Aktip Change [2]: Down
- Aktip logFC [2]: −0.119
- Atg2a Change [2]: Down
- Atg2a logFC [2]: −0.105
- Calm1 Change [2]: Down
- Calm1 logFC [2]: −0.155
- Calm2 Change [2]: Down
- Calm2 logFC [2]: −0.130
- Capza2 Change [2]: Down
- Capza2 logFC [2]: −0.082
- Cars2 Change [2]: Down
- Cars2 logFC [2]: −0.090
- Cep89 Change [2]: Down
- Cep89 logFC [2]: −0.075
- Cox7a2 Change [2]: Down
- Cox7a2 logFC [2]: −0.144
- Elp6 Change [2]: Down
- Elp6 logFC [2]: −0.124
- Fam193a Change [2]: Down
- Fam193a logFC [2]: −0.088
- Gje1 Change [2]: Down
- Gje1 logFC [2]: −0.108
- Gmeb1 Change [2]: Down
- Gmeb1 logFC [2]: −0.074
- Hadhb Change [2]: Down
- Hadhb logFC [2]: −0.103
- Haus8 Change [2]: Down
- Haus8 logFC [2]: −0.116
- Lztr1 Change [2]: Down
- Lztr1 logFC [2]: −0.130
- Mettl3 Change [2]: Down
- Mettl3 logFC [2]: −0.077
- Mrp19 Change [2]: Down
- Mrp19 logFC [2]: −0.074
- Mterf3 Change [2]: Down
- Mterf3 logFC [2]: −0.125
- Nop58 Change [2]: Down
- Nop58 logFC [2]: −0.094
- P3h3 Change [2]: Down
- P3h3 logFC [2]: −0.092
- Parp1 Change [2]: Down
- Parp1 logFC [2]: −0.079
- Polr2c Change [2]: Down
- Polr2c logFC [2]: −0.091
- Ppan Change [2]: Down
- Ppan logFC [2]: −0.074
- Rfc2 Change [2]: Down
- Rfc2 logFC [2]: −0.121
- Rpap1 Change [2]: Down
- Rpap1 logFC [2]: −0.125
- Sec23ip Change [2]: Down
- Sec23ip logFC [2]: −0.086
- Slc23a1 Change [2]: Down
- Slc23a1 logFC [2]: −0.099
- Snf8 Change [2]: Down
- Snf8 logFC [2]: −0.074
- Sumf2 Change [2]: Down
- Sumf2 logFC [2]: −0.127
- Tecr Change [2]: Down
- Tecr logFC [2]: −0.242
- Tuba1b Change [2]: Down
- Tuba1b logFC [2]: −0.115
- Tubb2a Change [2]: Down
- Tubb2a logFC [2]: −0.113
- Uba2 Change [2]: Down
- Uba2 logFC [2]: −0.113
- Vps8 Change [2]: Down
- Vps8 logFC [2]: −0.120
- Zcchc4 Change [2]: Down
- Zcchc4 logFC [2]: −0.112
- Change (Atp5a1, Glut Neurons): Down
- Mean-Ket (Atp5a1, Glut Neurons): 0.832
- logFC (Atp5a1, Glut Neurons): −0.162
- Change (Atp5j2, Glut Neurons): Down
- Mean-Ket (Atp5j2, Glut Neurons): 0.851
- logFC (Atp5j2, Glut Neurons): −0.169
- Change (Atp5j, Glut Neurons): Down
- Mean-Ket (Atp5j, Glut Neurons): 1.199
- logFC (Atp5j, Glut Neurons): −0.230
- Change (Atp6v0e2, Astrocytes): Down
- Mean-Ket (Atp6v0e2, Astrocytes): 1.529
- logFC (Atp6v0e2, Astrocytes): −0.138
- Change (Atp5h, Glut Neurons): Down
- Mean-Ket (Atp5h, Glut Neurons): 1.341
- logFC (Atp5h, Glut Neurons): −0.231
- Change (Atxn2, Glut Neurons): Down
- Mean-Ket (Atxn2, Glut Neurons): 1.752
- logFC (Atxn2, Glut Neurons): −0.131
- Change (Cars2, Glut Neurons): Down
- Mean-Ket (Cars2, Glut Neurons): 2.514
- logFC (Cars2, Glut Neurons): −0.095
- Change (Casc4, Glut Neurons): Down
- Mean-Ket (Casc4, Glut Neurons): 3.269
- logFC (Casc4, Glut Neurons): −0.109
- Change (Ccdc62, Glut Neurons): Down
- Mean-Ket (Ccdc62, Glut Neurons): 1.370
- logFC (Ccdc62, Glut Neurons): −0.131
- Change (Cep89, Glut Neurons): Down
- Mean-Ket (Cep89, Glut Neurons): 2.584
- logFC (Cep89, Glut Neurons): −0.104
- Change (Chn1, Glut Neurons): Down
- Mean-Ket (Chn1, Glut Neurons): 1.219
- logFC (Chn1, Glut Neurons): −0.192
- Change (Chpt1, Glut Neurons): Down
- Mean-Ket (Chpt1, Glut Neurons): 2.768
- logFC (Chpt1, Glut Neurons): −0.092
- Change (Cox6b1, Glut Neurons): Down
- Mean-Ket (Cox6b1, Glut Neurons): 1.063
- logFC (Cox6b1, Glut Neurons): −0.161
- Change (Cpe, Glut Neurons): Down
- Mean-Ket (Cpe, Glut Neurons): 1.060
- logFC (Cpe, Glut Neurons): −0.123
- Change (Cxcr2, Glut Neurons): Down
- Mean-Ket (Cxcr2, Glut Neurons): 2.721
- logFC (Cxcr2, Glut Neurons): −0.098
- Change (D3Ertd254e, Glut Neurons): Down
- Mean-Ket (D3Ertd254e, Glut Neurons): 1.540
- logFC (D3Ertd254e, Glut Neurons): −0.179
- Change (D6Wsu163e, Glut Neurons): Down
- Mean-Ket (D6Wsu163e, Glut Neurons): 2.314
- logFC (D6Wsu163e, Glut Neurons): −0.101
- Change (Dars, Glut Neurons): Down
- Mean-Ket (Dars, Glut Neurons): 1.380
- logFC (Dars, Glut Neurons): −0.115
- Change (Dhx30, Glut Neurons): Down
- Mean-Ket (Dhx30, Glut Neurons): 1.310
- logFC (Dhx30, Glut Neurons): −0.133
- Change (Dpp10, Glut Neurons): Up
- Mean-Ket (Dpp10, Glut Neurons): 1.344
- logFC (Dpp10, Glut Neurons): 0.216
- Change (Eef1akmt3, Astrocytes): Up
- Mean-Ket (Eef1akmt3, Astrocytes): 1.918
- logFC (Eef1akmt3, Astrocytes): 0.336
- Change (Eif4a2, Glut Neurons): Down
- Mean-Ket (Eif4a2, Glut Neurons): 1.524
- logFC (Eif4a2, Glut Neurons): −0.234
- Change (Enah, Glut Neurons): Down
- Mean-Ket (Enah, Glut Neurons): 2.212
- logFC (Enah, Glut Neurons): −0.108
- Akap5 Mean-Ket [3]: 3.573
- Eef1akmt3 Mean-Ket [3]: 1.735
- Ilf2 Mean-Ket [3]: 1.206
- Lrrc17 Mean-Ket [3]: 2.859
- Saa3 Mean-Ket [3]: 1.407
- Slco1a4 Mean-Ket [3]: 1.231
- Vps8 Mean-Ket [3]: 1.667
- Akap5 Change [4]: Down
- Akap5 logFC [4]: −0.447
- Eef1akmt3 Change [4]: Up
- Eef1akmt3 logFC [4]: 0.511
- Ilf2 Change [4]: Up
- Ilf2 logFC [4]: 0.361
- Lrrc17 Change [4]: Down
- Lrrc17 logFC [4]: −0.407
- Saa3 Change [4]: Up
- Saa3 logFC [4]: 0.366
- Slco1a4 Change [4]: Up
- Slco1a4 logFC [4]: 0.415
- Vps8 Change [4]: Down
- Vps8 logFC [4]: −0.398
- Change (Exosc5, Glut Neurons): Down
- Mean-Ket (Exosc5, Glut Neurons): 1.196
- logFC (Exosc5, Glut Neurons): −0.109
- Change (Fam193a, Glut Neurons): Down
- Mean-Ket (Fam193a, Glut Neurons): 2.472
- logFC (Fam193a, Glut Neurons): −0.101
- Change (Fgd4, Glut Neurons): Up
- Mean-Ket (Fgd4, Glut Neurons): 2.397
- logFC (Fgd4, Glut Neurons): 0.144
- Change (Foxr1, Glut Neurons): Down
- Mean-Ket (Foxr1, Glut Neurons): 2.380
- logFC (Foxr1, Glut Neurons): −0.113
- Change (Fubp1, Glut Neurons): Down
- Mean-Ket (Fubp1, Glut Neurons): 2.828
- logFC (Fubp1, Glut Neurons): −0.093
- Change (Furin, Glut Neurons): Down
- Mean-Ket (Furin, Glut Neurons): 1.335
- logFC (Furin, Glut Neurons): −0.132
- Change (Gapdh-ps15, Astrocytes): Down
- Mean-Ket (Gapdh-ps15, Astrocytes): 1.333
- logFC (Gapdh-ps15, Astrocytes): −0.157
- Change (Gclm, Glut Neurons): Down
- Mean-Ket (Gclm, Glut Neurons): 0.984
- logFC (Gclm, Glut Neurons): −0.113
- Change (Gmeb1, Glut Neurons): Down
- Mean-Ket (Gmeb1, Glut Neurons): 2.782
- logFC (Gmeb1, Glut Neurons): −0.087
- Change (Golga3, Astrocytes): Down
- Mean-Ket (Golga3, Astrocytes): 1.515
- logFC (Golga3, Astrocytes): −0.136
- Change (H2-T23, Glut Neurons): Down
- Mean-Ket (H2-T23, Glut Neurons): 1.757
- logFC (H2-T23, Glut Neurons): −0.173
- Change (Hook3, Glut Neurons): Down
- Mean-Ket (Hook3, Glut Neurons): 2.556
- logFC (Hook3, Glut Neurons): −0.089
- Change (Hsd3b2, Glut Neurons): Up
- Mean-Ket (Hsd3b2, Glut Neurons): 1.162
- logFC (Hsd3b2, Glut Neurons): 0.193
- Change (Il17ra, Glut Neurons): Up
- Mean-Ket (Il17ra, Glut Neurons): 1.490
- logFC (Il17ra, Glut Neurons): 0.252
- Change (Ilf2, Astrocytes): Up
- Mean-Ket (Ilf2, Astrocytes): 1.350
- logFC (Ilf2, Astrocytes): 0.295
- Change (Ipo7, Glut Neurons): Down
- Mean-Ket (Ipo7, Glut Neurons): 1.687
- logFC (Ipo7, Glut Neurons): −0.119
- Change (Kcnj16, Glut Neurons): Up
- Mean-Ket (Kcnj16, Glut Neurons): 1.052
- logFC (Kcnj16, Glut Neurons): 0.227
- Change (Kif3a, Glut Neurons): Down
- Mean-Ket (Kif3a, Glut Neurons): 1.198
- logFC (Kif3a, Glut Neurons): −0.141
- Change (Loxl2, Glut Neurons): Down
- Mean-Ket (Loxl2, Glut Neurons): 2.605
- logFC (Loxl2, Glut Neurons): −0.098
- Change (Lrrc17, Astrocytes): Down
- Mean-Ket (Lrrc17, Astrocytes): 3.291
- logFC (Lrrc17, Astrocytes): −0.192
- Change (Lsm8, Glut Neurons): Down
